Results taken from article PMC12640959, “Elucidation of anti-SARS-CoV-2 and anti-inflammatory bioactives in Qingyan Dropping Pills via integrated in silico screening and bioactivity validation” (Frontiers in Medicine, 2025).
Like-named read-outs stand apart in the source and are kept apart here.

Tests used:
SARS-CoV-2 = tested on: SARS-CoV-2; parameters: method as in PMID 37245876; conditions: Vero E6 monolayers, noncytotoxic concentrations; cited from earlier work
[1] = biological target: T1, SARS-CoV-2 spike protein (S^pro) (Severe acute respiratory syndrome coronavirus 2, UniProt P0DTC2); assay: SPR assay (Biacore T200), immobilized S^pro; assay type: binding; conditions: CM5 chip, 25 °C, pH 7.4, 5% DMSO, read-out: equilibrium dissociation constant (KD), S^pro
T1 construct: purchased Sino Biological Inc. (Beijing, China)

[2] = biological target: SARS-CoV-2 papain-like protease (PL^pro) (Severe acute respiratory syndrome coronavirus 2, UniProt P0DTD1); assay: SPR assay (Biacore T200), immobilized PL^pro; assay type: binding
SARS-CoV-2 M^pro = SARS-CoV-2 M^pro (Severe acute respiratory syndrome coronavirus 2, UniProt P0DTD1); assay: FRET enzymatic inhibition assay on M^pro; assay type: biochemical
SARS-CoV-2 PL^pro = SARS-CoV-2 PL^pro (Severe acute respiratory syndrome coronavirus 2, UniProt P0DTD1); assay: FRET enzymatic inhibition assay on PL^pro; assay type: biochemical; conditions: for inhibition on PL^pro at 40 μM: 40 μM compound
SARS-CoV-2 Omicron BA.5 = assay: cytopathic effects (CPE) inhibition assay in Vero E6 cells; assay type: cell-based
[3] = MTT cell viability assay in RAW 264.7 cells; assay type: cell-based; conditions: mouse
Experimental: (§1) RAW 264.7 cells were cultured in DMEM with 10% fetal bovine serum, 100 μg/mL streptomycin, and 100 U/mL penicillin at 37 °C and supplemented with 5% CO2 and 95% air. After seeded and cultured in a 96-well plate (2 × 10^5 cells/well, 100 μL medium/well) for overnight, RAW 264.7 were treated with the tested compounds for 24 h, respectively. Then, 50 μL MTT (2.5 mg/mL) was added into each well and incubated at 37 °C for 4 h. Finally, the absorbance was recorded at 490 nm by a microplate reader to assess the cell viability.

NO = NO level in LPS-induced RAW 264.7 cells; assay type: cell-based; conditions: RAW 264.7, LPS 1 μg/mL, 24 h, vs model group, dose-dependent
Text: (§2) NO is an essential pro-inflammatory factor, which can be not only highly expressed in cells but also promoted the expression of other inflammatory cytokines. TNF-α, IL-6, and IL-1β were considered as the main inflammatory cytokines, which were screened as the key targets in network pharmacology. So, the cytokines, including NO, TNF-α, IL-6, and IL-1β, were selected as indicators to evaluate the anti-inflammatory effects. After cultured in a 96-well plate overnight for 1 × 10^5 cells/well, RAW 264.7 cells were simultaneously treated with the tested compounds (concentration from 5 μM to 100 μM) and lipopolysaccharide (LPS) (concentration with 1 μg/mL) for 24 h. Then, the supernatant was collected to measure the cytokines levels with the corresponding assay kits, respectively.

IL-6 = IL-6 level (ELISA) in LPS-induced RAW 264.7 cells; assay type: cell-based; conditions: RAW 264.7, LPS 1 μg/mL, 24 h, vs model group
Text: as §2

IL-1β = IL-1β level (ELISA) in LPS-induced RAW 264.7 cells; assay type: cell-based; conditions: RAW 264.7, LPS 1 μg/mL, 24 h, vs model group
Text: as §2

TNF-α = TNF-α level (ELISA) in LPS-induced RAW 264.7 cells; assay type: cell-based; conditions: RAW 264.7, LPS 1 μg/mL, 24 h, vs model group
Text: as §2

RdRp = tested on: RdRp; parameters: method as in PMID 33614402; conditions: cell-free and cell-based assays; cited from earlier work
in vitro = conditions: African green monkey
RAW 264.7 cells = assay: MTT cell viability assay in RAW 264.7 cells; assay type: cell-based
Experimental: as §1

[4] = biological target: SARS-CoV-2 main protease (M^pro) (Severe acute respiratory syndrome coronavirus 2, UniProt P0DTD1); assay: SPR assay (Biacore T200), immobilized M^pro; assay type: binding; conditions: CM5 chip, 25 °C, pH 7.4, 5% DMSO
[5] = rat, in vivo, po; cited from earlier work
S^pro RBD = biological target: S^pro RBD; parameters: method as in PMID 34403732; conditions: cited from earlier work
[6] = MTT, 24 h, tested up to 100 μΜ, read-out: CC50 in RAW264.7 cells

O=C1O[C@H]2[C@@H]3OC(=O)c4cc(O)c(O)c(O)c4-c4c(O)c(O)c5oc(=O)c6c(c(O)c(O)c7oc(=O)c4c5c76)-c4c(cc(O)c(O)c4O)C(=O)OC[C@H]3OC(O)[C@@H]2OC(=O)c2cc(O)c(O)c(O)c2-c2c1cc(O)c(O)c2O (mixture of isomers) [punicalagin]
virus-induced plaque formation (SARS-CoV-2): reduce

O=C(O[C@@H]1O[C@@H]2COC(=O)c3cc(O)c(O)c(O)c3-c3c(cc(O)c(O)c3O)C(=O)O[C@H]([C@H]1O)[C@@H]2O)c1cc(O)c(O)c(O)c1 [COR, corilagin]
Kd [1]: 0.192 µM | Kd [2]: 6.24 µM | IC50 (SARS-CoV-2 M^pro): 0.73 ± 0.05 µM | IC50 (SARS-CoV-2 PL^pro): > 100 µM | inhibition on PL^pro at 40 μM (SARS-CoV-2 PL^pro; FRET): poor inhibition | EC50 (SARS-CoV-2 Omicron BA.5; Severe acute respiratory syndrome coronavirus 2, Vero C1008, 48 h): 12.8 µM | CC50 at 24 h [3]: > 100 µM | production of NO (NO): inhibited | level of IL-6 (IL-6): significantly reduce | level of IL-1β (IL-1β): significantly reduce | level of TNF-α (TNF-α): decrease | RdRp polymerase activity (RdRp): robustly inhibiting | CC50 at 48 h (in vitro): > 100 µM

O=C(O)c1cc(O)c(O)c(O)c1 [GAL, gallic acid]
CC50 at 24 h [3, 6]: > 100 µM | production of NO (NO): inhibited | level of IL-6 (IL-6): significantly reduce | level of IL-1β (IL-1β): significantly reduce | level of TNF-α (TNF-α): decrease

C[C@H](CCC(=O)NCC(=O)O)[C@H]1CC[C@H]2[C@@H]3[C@H](O)C[C@@H]4C[C@H](O)CC[C@]4(C)[C@H]3C[C@H](O)[C@]12C [GLYCH, glycocholic acid]
cell viability of RAW264.7 cells (RAW 264.7 cells; MTT, above 40 μΜ, p < 0.05): significantly decreased | production of NO (NO): inhibited | level of IL-6 (IL-6): significantly reduce | level of IL-1β (IL-1β): significantly reduce | level of TNF-α (TNF-α): decrease

O=C(OC[C@H]1OC(O)[C@@](O)(COC(=O)c2cc(O)c(O)c(O)c2)[C@@H]1O)c1cc(O)c(O)c(O)c1 (stereo partly shown) [HAM, hamamelitannin]
Kd [1]: 0.0933 µM | equilibrium dissociation constant (KD), PL^pro ([2]; SPR, CM5 chip, 25 °C, pH 7.4, 5% DMSO): negligible affinity | equilibrium dissociation constant (KD), M^pro [4]: negligible affinity | cell viability of RAW264.7 cells (RAW 264.7 cells): significantly decreased | production of NO (NO): inhibited | level of IL-6 (IL-6): significantly reduce | level of IL-1β (IL-1β): significantly reduce

O=C(/C=C/c1ccc(O[C@@H]2O[C@H](CO)[C@@H](O)[C@H](O)[C@H]2O)cc1)c1ccc(O)cc1O [ISO, isoliquiritin]
CC50 at 24 h [3, 6]: > 100 µM | production of NO (NO): inhibited | level of IL-6 (IL-6): significantly reduce | level of IL-1β (IL-1β): significantly reduce | level of TNF-α (TNF-α): decrease

C[C@@H]1O[C@@H](O[C@H]2[C@H](Oc3cc(O)c4c(=O)cc(-c5ccc(O)cc5)oc4c3)O[C@H](CO)[C@@H](O)[C@@H]2O)[C@H](O)[C@H](O)[C@H]1O [RHO, rhoifolin]
Kd [1]: 7.07 µM | Kd ([2]; SPR, CM5 chip, 25 °C, pH 7.4, 5% DMSO, read-out: equilibrium dissociation constant (KD), PL^pro): 7.72 µM | IC50 (SARS-CoV-2 M^pro; FRET, 0.2 μM protein, 20 μM substrate, read-out: IC50 on M^pro): 21.6 ± 8.78 µM | IC50 (SARS-CoV-2 PL^pro; FRET, 1 μM protein, 10 μM substrate, read-out: IC50 on PL^pro): > 100 µM | inhibition on PL^pro at 40 μM (SARS-CoV-2 PL^pro; FRET): poor inhibition | CC50 at 24 h [3]: > 100 µM | production of NO (NO): inhibited | level of IL-6 (IL-6): significantly reduce | level of IL-1β (IL-1β): significantly reduce | level of TNF-α (TNF-α): decrease

Cn1cnc(Cn2c(=O)[nH]/c(=N\c3cc4cn(C)nc4cc3Cl)n(Cc3cc(F)c(F)cc3F)c2=O)n1 [S-217622, reference compound]
EC50 (SARS-CoV-2 Omicron BA.5): 0.088 µM

CC1(C)C2CCC1(C)C(O)C2 (stereo not shown) [borneol]
Tmax [5]: 20 to 25 min

O=C(O)C[C@@H]1C(=O)O[C@H]2[C@@H]3OC(=O)c4cc(O)c(O)c(O)c4-c4c(cc(O)c(O)c4O)C(=O)OC[C@H]2O[C@@H](OC(=O)c2cc(O)c(O)c(O)c2)[C@@H]3OC(=O)c2cc(O)c(O)c3c2[C@H]1[C@H](O)C(=O)O3 [chebulagic acid]
virus-induced plaque formation (SARS-CoV-2): reduce

O=C(O[C@@H]1Cc2c(O)cc(O)cc2O[C@@H]1c1cc(O)c(O)c(O)c1)c1cc(O)c(O)c(O)c1 [epigallocatechin gallate]
Kd (S^pro RBD): 11.5 µM

CC(C)=CCc1c(O)ccc(C(=O)/C=C/c2ccc(O)cc2)c1O [isobavachalcone]
Kd (S^pro RBD): 5.7 µM

O=C(/C=C/c1ccc(O)c(O)c1)O[C@@H]1C[C@](O)(C(=O)O)C[C@@H](OC(=O)/C=C/c2ccc(O)c(O)c2)[C@H]1O [isochlorogenic acid A]
Kd (S^pro RBD): 18.3 µM
